{"source": "patent US20220213052A1", "about": "“INHIBITORS OF RNA-BINDING PROTEINS, COMPOSITIONS THEREOF, AND THERAPEUTIC USES THEROF” (The University of North Carolina at Chapel Hill, priority 2019, published 2022)", "key": {"[1]": {"system": "2LMP subclone generated from MDA-MB-231", "assay": "2LMP mouse xenograft model", "format": "in vivo", "excerpt": "Xenograft and orthotopic models of cancer cell lines with HuR overexpression will be used to test the in vivo therapeutic potential of compounds of the present technology. A person of ordinary skill in the art is well apprised of cancer cell lines with HuR overexpression, as exemplified by references 2-12 cited herein in the “References” section. Tumor models will be established as described in Xu, L., et al., (−)−Gossypol enhances response to radiation therapy and results in tumor regression of human prostate cancer. Mol Cancer Ther, 2005. 4(2): p. 197-205.35 Briefly, 4-6 week old athymic NCr-nu/nu mice or 8-10-week-old NOD/SCID mice will be inoculated subcutaneously on both sides of flanks with 0.1 ml of a cell suspension of 1-5×10^6 tumor cells. Tumors will be allowed to grow to approximately 100 mm^3, when the blood vessel supplies to the tumor are established. Each group will contain at least 5 animals with at least 10 tumors across the five animals. Animals will be given compounds or vehicle i.v., i.p. or q.o.d.×2-3 weeks as described in Xu, L., et al., Systemic p53 gene therapy of cancer with immunolipoplexes targeted by anti-transferrin receptor scFv. Mol Med, 2001. 7(10): p. 723-34 and Xu, L., et al., Self-assembly of a virus-mimicking nanostructure system for efficient tumor-targeted gene delivery. […] The tumor sizes and animal body weights will be measured twice a week. […]"}, "[2]": {"biological_target": "T1, HuR protein bound to ARE^Msi1-Biotin (Homo sapiens, UniProt Q15717)", "T1 construct": "endogenous in cells; cytoplasmic lysate", "T1 sequence (Q15717 2-326 limits assumed)": "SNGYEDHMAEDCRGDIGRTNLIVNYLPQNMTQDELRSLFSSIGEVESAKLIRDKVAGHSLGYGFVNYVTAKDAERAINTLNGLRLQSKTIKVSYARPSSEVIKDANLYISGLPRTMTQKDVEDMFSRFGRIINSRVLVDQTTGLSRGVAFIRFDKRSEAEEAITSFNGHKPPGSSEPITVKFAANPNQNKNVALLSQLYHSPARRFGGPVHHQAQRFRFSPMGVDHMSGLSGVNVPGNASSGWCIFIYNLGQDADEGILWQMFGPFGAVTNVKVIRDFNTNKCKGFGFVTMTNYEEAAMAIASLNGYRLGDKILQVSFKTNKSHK", "assay": "RNA immunoprecipitation (RNA-IP) pull-down assay", "format": "cell-based", "settings": "20 μM", "method": "Pull-down Assay #1—RNA Immunoprecipitation (RNA-IP): Cells with HuR overexpression will be treated with compounds, then the cell cytoplasmic lysates were collected using NE-PER Nuclear and Cytoplasmic Extraction Kit (Thermo Scientific), and subsequently to the cell cytoplasmic lysates were added the biotinylated target ARE oligo from Msi1 mRNA (ARE^Msi1-Biotin). Following this, streptavidin beads were added to pull down HuR protein bound to ARE^Msi1-Biotin. Unlabeled target AREs used as positive control. Compounds of the present technology block the HuR pull-down by the biotinylated ARE oligo, illustrating inhibition of the HuR-mRNA interaction. For example, using 20 μM KH-39, 20 μM KH-56, and 10 μM KH-58 in such a RNA-IP assay provided the data illustrated in FIG. 5. The numbers immediately below the pictured bands in FIG. 5 are calculated by diving the band intensity of the particular sample by the band intensity of the DMSO treated sample (entry 3). […]"}, "MDA-MB-231 cells": {"system": "MDA-MB-231 cells", "assay": "Matrigel invasion assay", "format": "cell-based", "settings": "10 μM; 24 h pretreatment, 20 h incubation", "method": "To examine the anti-metastatic effect of compounds of the present technology, an invasion assay using Matrigel Invasion Chambers coated with Matrigel Matrix was performed. To perform the assays, MDA-MB-231 cells pretreated with compounds for 24 hours are added to the chambers and then incubated for 20 hours. Cells that remained on the upper surface of the chamber are completely removed with a cotton swab. Cells that emigrated or invaded through the membrane/Matrigel to the bottom of the chamber were fixed and stained with 0.2% crystal violet and photographed."}, "[3]": {"system": "MDA-MB-231 mouse xenograft", "assay": "MDA-MB-231 mouse xenograft model, KH-39 alone and with docetaxel", "format": "in vivo, mice", "settings": "after three-week treatment; KH-39 i.p. 50 mg/kg 5 times per week; TXT i.v.; ***P<0.001, ****P<0.0001, n=12", "excerpt": "Cytotoxicity assays (as described earlier in this disclosure) for various cancer cell lines will also be performed utilizing concentrations of a compound of the present technology that are below the lethal threshold for the compound for the particular cancer (a “sub-lethal concentration”) in combination with a chemotherapeutic compound (e.g., docetaxel or doxorubicin) to illustrate compounds of the present technology sensitize cancer cell lines to chemotherapy. By way of illustration in an in vivo model, in vivo antitumor efficacy of KH-39 was examined in combination with docetaxel (a first-line chemotherapy for human breast cancer) in a MDA-MB-231 mouse xenograft model. For this, tumor-bearing female athymic mice were provided according to the protocols described earlier in the present disclosure and were randomized into four groups. One group of mice was treated with KH-39 (i.p. 50 mg/kg, 5 times per week), one group with docetaxel (TXT; i.v. at the dosages and time intervals indicated in FIG. 12), one group with a combination of KH-39 and TXT (KH-39 i.p. 50 mg/kg, 5 times per week and TXT i.v. at the dosages and time intervals indicated in FIG. 12), and one group of mice as the vehicle control. FIG. 12 illustrates the results, providing the tumor growth curves for each group."}, "[4]": {"system": "triple-negative breast cancer cell line MDA-MB-231", "assay": "Cytotoxicity assay (WST-8), MDA-MB-231", "format": "cell-based", "settings": "Homo sapiens, 96 h incubation", "outline": "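Cells (3,000-5,000/well) were treated in triplicate with titrated compounds for 96 h, then WST-8 was added for 1-3 h at 37° C and absorbance read at 450 nm (650 nm correction). IC50 (50% growth inhibition vs vehicle) came from sigmoid curve fitting.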"}}}
{"smiles": "CC(C)(C)c1ccc(C(=O)Nc2ccc3[nH]c(C(=O)NO)cc3c2)cc1", "note": "[KH-39, 5-(4-(tert-butyl)benzamido)-N-hydroxy-1H-indole-2-carboxamide]", "values": [{"measurement": "bodyweight gain of mice", "setting": "[1]; 2LMP xenograft model", "value": "gain bodyweight with similar trend to those in vehicle control group"}, {"measurement": "tumor growth compared to the vehicle control", "setting": "[1]; after three-week treatment, ****P<0.0001, n=10", "value": "significantly decreased tumor growth"}, {"measurement": "ARE^Msi1-Biotin mediated pull-down of HuR protein", "setting": "[2]", "value": "block ARE^Msi1-Biotin mediated pull-down of HuR protein"}, {"measurement": "MDA-MB-231 cell invasion", "setting": "MDA-MB-231 cells", "value": "clearly inhibited MDA-MB-231 cell invasion"}, {"measurement": "relative tumor sizes versus control group", "setting": "[3]", "value": "significantly smaller than those in control group"}, {"measurement": "IC50", "setting": "[4]", "value": 4.74, "unit": "µM"}]}
